≈ marks a conversion by molar mass, not a printed value.
Details: buffer; pH 7.4; 200.0 µM

solubility kinetic | Compound
6.4 µg/mL (≈ 21.2 µM) | N#Cc1c(N)n(-c2cccc(O)c2)c2nc3ccccc3nc12
40.7 µg/mL (≈ 129 µM) | CS(=O)(=O)N(CC(=O)N1CCOCC1)c1cccc(F)c1
> 46.6 µg/mL | CSc1ncc(CN2CCN(C(C)C)C(CCO)C2)cn1 (centres undefined)
30.1 µg/mL (≈ 108 µM) | CN(CC(=O)Nc1ccccc1F)Cc1cccs1
0.9 µg/mL (≈ 3.54 µM) | O=[N+]([O-])c1ccc(N2CCc3ccccc3C2)cc1
37 µg/mL (≈ 130 µM) | COc1cccc(C(=O)NCc2ccc3c(c2)OCO3)c1
30.9 µg/mL (≈ 113 µM) | Cc1ccc(CCC(=O)Nc2ccc([N+](=O)[O-])cc2)o1
21 µg/mL (≈ 85.5 µM) | Cc1ccc(C(=O)Nc2ccccc2Cl)cc1
32.3 µg/mL (≈ 117 µM) | COC(=O)CCC(=O)Nc1cc(Cl)cc(Cl)c1
> 44.9 µg/mL | O=C(O)COCC(=O)Nc1ccc2c(c1)oc1ccccc12
> 49.5 µg/mL | CN(C)Cc1c(O)ccc2c(=O)c(-c3ccc(Cl)cc3)coc12
51.6 µg/mL (≈ 144 µM) | O=C(O)c1ccc2c(c1)C(=O)N(c1ccc(Nc3ccccc3)cc1)C2=O
> 45.3 µg/mL | Cc1cc(OC(=O)c2ccc(C)c(C)c2)c([N+](=O)[O-])c(=O)[nH]1
43.6 µg/mL (≈ 135 µM) | COc1cc(OC)cc(C(=O)NC(=S)N2CCCCCC2)c1
> 48.7 µg/mL | CCN(C(=O)c1cn(C)c(=O)c2ccccc12)c1ccccc1F
38.4 µg/mL (≈ 121 µM) | COc1ccccc1NC(=O)CCSc1nc(C)cc(C)n1
23.3 µg/mL (≈ 66.3 µM) | O=C(OCC(=O)N1CCc2ccccc21)c1nc(Cl)ccc1Cl
> 44.1 µg/mL | O=C(/C=C/c1ccccc1Cl)OCC(=O)N1CCCC1
> 35.4 µg/mL | COc1ccc(O)c(/C=N/N2CCOCC2)c1
> 51.4 µg/mL | CC(=O)NCCc1nc2cc(NC(=O)c3cccs3)ccc2n1C
> 49.1 µg/mL | COc1ccc(CN2CCC(C(=O)c3ccc(F)cc3)CC2)cc1
> 41.6 µg/mL | Brc1cccc(CNCc2ccncc2)c1
21.4 µg/mL (≈ 50.9 µM) | Cc1ccc(C)c(SCC(=O)Nc2cccc(S(=O)(=O)N3CCOCC3)c2)c1
34.9 µg/mL (≈ 129 µM) | CCCCN=CC1=C(O)CC(c2ccccc2)CC1=O (centres undefined)

solubility kinetic | Compound
0.9 µg/mL (≈ 3.29 µM) | C=Cc1ccc(N=Cc2c(O)ccc3ccccc23)cc1
2.4 µg/mL (≈ 9.4 µM) | CCCc1cc(C(=O)Nc2ccc(C#N)cc2)no1
> 49.7 µg/mL | O=C(NCC(=O)N1CCN(c2ccccc2F)CC1)c1ccco1
3.6 µg/mL (≈ 7.94 µM) | CN(c1ccccc1)S(=O)(=O)c1ccc(C(=O)N2CCN(c3ccccc3F)CC2)cc1
> 50 µg/mL | O=C(CN1C(=O)NC(c2ccc(F)cc2)C1=O)NC1CCCCC1 (centres undefined)
16.7 µg/mL (≈ 61.1 µM) | COc1ccc(NC(=O)Nc2ccccn2)cc1OC
43.5 µg/mL (≈ 100 µM) | Cc1cc(C(=O)COC(=O)c2cccc(NS(C)(=O)=O)c2)c(C)n1CC1CCCO1 (centres undefined)
41.1 µg/mL (≈ 111 µM) | CC1(C)CC(NC(=O)c2ccc(-c3ccc([N+](=O)[O-])cc3)o2)CC(C)(C)N1
> 47.6 µg/mL | COc1ccccc1CNC(=O)COc1cccnc1[N+](=O)[O-]
41.2 µg/mL (≈ 134 µM) | O=C(c1ccccc1)C1CCN(C(=O)Nc2ccccc2)CC1
16.6 µg/mL (≈ 60.1 µM) | CC1(CCc2ccccc2)NC(=O)N(CC(=O)O)C1=O (centres undefined)
> 41.5 µg/mL | Cc1ccc(S(=O)(=O)NCc2cccnc2)c(C)c1
> 57.2 µg/mL | O=C(COC(=O)CNC(=O)C1CCCCC1)Nc1ccc(F)c([N+](=O)[O-])c1
> 41.4 µg/mL | O=C(NCCOc1ccccc1)c1ccccc1Cl
> 48.3 µg/mL | O=C(COC(=O)c1cnccn1)c1ccc(Cl)c([N+](=O)[O-])c1
27.2 µg/mL (≈ 84.9 µM) | COc1cccc(NC(=O)C(Cc2ccccc2)n2cccc2)c1 (centres undefined)
> 27.9 µg/mL | COCc1[nH]c(=S)[nH]c(=O)c1C
> 45 µg/mL | Cl.O=C(OCC1CCNCC1)c1ccc2c(c1)OCO2
4.9 µg/mL (≈ 15.2 µM) | Cc1ccc(CSC2=Nc3ccccc3C3=NC(=O)CN23)cc1
16.1 µg/mL (≈ 43.5 µM) | COc1cccc(C(=O)NCCSc2c(C)[nH]c3ccccc23)c1OC
40.8 µg/mL (≈ 148 µM) | COc1ccc(CCNC(=O)c2ccco2)cc1OC
35.6 µg/mL (≈ 121 µM) | CC1(C)c2ccccc2-n2c1cc1oc(=O)cc(O)c1c2=O
56.2 µg/mL (≈ 145 µM) | CCNC(=O)NC(=O)CSc1ccc(S(=O)(=O)N2CCOCC2)cn1
7.1 µg/mL (≈ 19.9 µM) | CCC(=O)Nc1ccc(-c2ccc(NC(=O)CC)c(OC)c2)cc1OC

solubility kinetic | Compound
> 40.7 µg/mL | COCCNC(=O)C1Cc2c(ccc3ccccc23)O1 (centres undefined)
12.4 µg/mL (≈ 33.9 µM) | O=C(COC(=O)C1=COCCO1)Nc1cc(C(F)(F)F)ccc1Cl
7.8 µg/mL (≈ 27.2 µM) | CC(=O)c1ccc(NC(=O)NCc2ccc(F)cc2)cc1
> 43.6 µg/mL | Cc1ccc(S(=O)(=O)N2CCn3cccc3C2C)cc1 (centres undefined)
1.5 µg/mL (≈ 4.49 µM) | Cc1nc(N2CCOCC2)nc(Oc2ccccc2F)c1[N+](=O)[O-]
4.6 µg/mL (≈ 13.1 µM) | NS(=O)(=O)c1cc(C(=O)Nc2ccc3c(c2)CCC3)ccc1Cl
21.7 µg/mL (≈ 61.7 µM) | COc1ccc(Cl)cc1NC(=O)C1(c2cccs2)CCOCC1
> 45.1 µg/mL | O=C(CN1C(=O)NC2(CCCCCC2)C1=O)c1ccccc1
16.6 µg/mL (≈ 54.7 µM) | CN(c1ccccc1)S(=O)(=O)c1ccc2[nH]c(=O)[nH]c2c1
> 43.6 µg/mL | CC1CCCCN1C(=O)CSc1nnc2ccccn12 (centres undefined)
> 44.1 µg/mL | Cc1c(C(=O)O)c(=O)n(-c2ccccc2)n1-c1ccccc1
33.9 µg/mL (≈ 106 µM) | COc1ccc(S(=O)(=O)N2CCCC2)cc1Br
28.8 µg/mL (≈ 84.1 µM) | CC(C)CN1CCN(Cc2cccn2-c2cccnc2)CC1CCO (centres undefined)
4.6 µg/mL (≈ 13 µM) | O=C(/C=C/c1ccccc1)Oc1cccc(C(=S)N2CCOCC2)c1
> 44.4 µg/mL | Cl.Nc1ccc(-c2nc3c(ccc4ccccc43)[nH]2)cc1
> 42.1 µg/mL | O=C(Nc1ccc(Cl)cc1N1CCOCC1)C1CC1
6.7 µg/mL | N=C(N)N1CCN(Cc2ccccc2)CC1.O=S(=O)(O)O
< 0.6 µg/mL | CCCN(CCC)Cc1cc(=O)oc2cc3c(cc12)CCC3
25.8 µg/mL (≈ 85.3 µM) | Cc1[nH]c2ccccc2c1SCC(=O)N1CCCCCC1
13.7 µg/mL (≈ 40.7 µM) | O=C(Nc1ccc(S(=O)(=O)N2CCCC2)cc1)C1CCCCC1
0.3 µg/mL (≈ 0.934 µM) | Cc1ccc2c(c1)c1ncn(Cc3ccc(F)cc3)c(=O)c1n2C
1.5 µg/mL (≈ 4.66 µM) | COc1ccc(C(=O)NC(=S)Nc2cccnc2)cc1Cl
52.1 µg/mL (≈ 137 µM) | CC1(C(=O)Nc2nc3ccc(S(C)(=O)=O)cc3s2)CC1(Cl)Cl (centres undefined)
> 52.1 µg/mL | CCOCCCNC(=O)C1CCN(S(=O)(=O)N2CCCC2)CC1

solubility kinetic | Compound
16.6 µg/mL (≈ 57.8 µM) | Cn1c(Oc2ccc(F)cc2F)c(C=O)c2ccccc21
0.7 µg/mL (≈ 2.16 µM) | CC(=O)OCc1c(-c2ccccc2)c2cc([N+](=O)[O-])ccc2n1C
2.3 µg/mL (≈ 6.33 µM) | O=C(NC1CCN(Cc2ccc(Cl)cc2Cl)CC1)c1ccccc1
> 32.7 µg/mL | O=C(NCCCO)c1cc2ccccc2[nH]1
> 44.3 µg/mL | NC(=O)c1ccccc1NC(=O)CSC1=NCCS1
< 0.4 µg/mL | O=c1[nH]c(/C=C/c2cccc(Br)c2)nc2ccccc12
2.4 µg/mL (≈ 8.49 µM) | O=c1[nH]c(-c2ccccc2)nc(-c2ccccc2)c1Cl
< 0.6 µg/mL | O=C(NC1CCCCC1)c1ccc(-c2ccccc2)cc1
8.5 µg/mL (≈ 32.4 µM) | CC(=O)Nc1nc(-c2ccc3c(c2)OCO3)cs1
< 0.3 µg/mL | Cc1ccc(NC(=O)OCc2cc(-c3ccccc3)on2)cc1
< 0.2 µg/mL | CCc1ccc(Nc2ccc3nonc3c2[N+](=O)[O-])cc1
< 0.4 µg/mL | COc1c(C(=O)Nc2ccc(Br)cn2)ccc2ccccc12
38.7 µg/mL (≈ 136 µM) | Cn1ccsc1=NC(=O)c1ccccc1OC(F)F
37.9 µg/mL (≈ 116 µM) | CCNC(=S)Nc1cccc(S(=O)(=O)NC2=NCCC2)c1
< 0.2 µg/mL | CC(C)CC(=O)NC(=S)Nc1ccc(N2CCCC2)c(Cl)c1
4.3 µg/mL (≈ 13.9 µM) | O=C(Nc1ccc(F)cc1)c1cccnc1Oc1ccccc1
18.2 µg/mL (≈ 47.7 µM) | CC1CCCCC12NC(=O)N(CC(=O)Nc1ccc(OC(F)F)cc1)C2=O (centres undefined)
5.2 µg/mL (≈ 18.2 µM) | COc1cccc(Nc2ccc([N+](=O)[O-])c3nonc23)c1
> 47.3 µg/mL | CC(C)N1CC(C(=O)Nc2cc(Cl)cc(Cl)c2)CC1=O (centres undefined)
10.4 µg/mL (≈ 33.1 µM) | CCCn1c(NC(=O)c2ccc([N+](=O)[O-])o2)nc2ccccc21
> 40.8 µg/mL | Cc1ccc(-c2cc(C(=O)N3CCOCC3)no2)cc1
2.3 µg/mL (≈ 6.81 µM) | CC(C)(C)C(=O)N1CCN(c2nc3ccc(Cl)cc3s2)CC1
> 51.8 µg/mL | O=C(NCC(=O)N1CCN(c2ccccc2O)CC1)c1cccs1
> 45.4 µg/mL | Clc1ccccc1CSc1nncn1-c1cccnc1

solubility kinetic | Compound
12.8 µg/mL (≈ 43.8 µM) | O=c1sc2ccccc2c(N2CCOCC2)c1[N+](=O)[O-]
9.8 µg/mL (≈ 34.8 µM) | Cc1ccc([N+](=O)[O-])c(OCc2ncc(Cl)n2C)c1
> 44.6 µg/mL | Br.CCn1c2c(c(=N)c3c1CCC3)CCCC2
> 45.5 µg/mL | CC(C)c1ccccc1NC(=O)CC1(CC(=O)O)CCCC1
53.1 µg/mL | CN1CCC(=C(c2ccccc2)c2ccc(Br)cc2)CC1.Cl
3.2 µg/mL (≈ 7.89 µM) | O=C(c1ccc(Cl)s1)N1CCN(S(=O)(=O)c2ccc(Cl)cc2)CC1
1.2 µg/mL (≈ 4.63 µM) | O=C(Nc1cccc([N+](=O)[O-])c1)Nc1cnccn1
> 48.1 µg/mL | COc1ccc(NC(=O)CNC(=O)C2CCCCC2)cc1OC
55 µg/mL | Cc1cc(Nc2ccc(N3CCOCC3)cc2)c2cccc(C)c2n1.Cl
4.2 µg/mL (≈ 14.1 µM) | CC(=O)c1ccc(Nc2ccc([N+](=O)[O-])c3nonc23)cc1
> 34.8 µg/mL | COc1ccc2c(c1)sc1nc(=O)ccn12
> 43.7 µg/mL | COc1cc(C(=O)O)cc(NC(=O)c2ccco2)c1OC
> 30.6 µg/mL | Cc1ccn2c(=O)c(C(=O)O)cnc2c1
0.3 µg/mL (≈ 0.969 µM) | CCc1nonc1NC(=O)COc1cc(C)c(Cl)c(C)c1
43.3 µg/mL (≈ 143 µM) | CN(CC(=O)NCc1ccccc1)Cc1ccc(Cl)cc1
50.8 µg/mL (≈ 147 µM) | Cc1cccc(NS(=O)(=O)c2ccc(C(=O)N3CCC3)cc2)c1C
> 37.7 µg/mL | COC(=O)N1c2ccccc2C=Cc2ccccc21
24.2 µg/mL (≈ 67.9 µM) | COc1cc(NC(=O)CCCn2c(=O)oc3ccccc32)cc(OC)c1
1.6 µg/mL (≈ 4.92 µM) | CCc1ccc(N2CN(CCc3ccccc3)CNC2=S)cc1
> 42 µg/mL | O=C(O)c1cccc2c(/C=N/Nc3ccccn3)c[nH]c12

Compound | solubility kinetic
CC1CCN(c2cc(Br)c([N+](=O)[O-])cc2F)CC1 | 3.1 µg/mL (≈ 9.77 µM)
Clc1ccc(Cn2ccnc2)cn1 | 24.2 µg/mL (≈ 125 µM)
CCCCn1c(=O)c(C(=O)Nc2ccccc2F)c(O)c2ccccc21 | < 0.4 µg/mL

Source: PubChem BioAssay AID1996
